Data: article PMC5597593, “Polyphenols journey through blood-brain barrier towards neuronal protection” (Scientific Reports, 2017)
Entries after “also recorded” stand apart in the source; their conditions may differ.

Tests used:
HBMEC line [1] = experiment: Endothelial transport across confluent HBMEC two chamber BBB model, LC-Orbitrap MS; type: in vitro ADME, human; settings: for Endothelial transport (lower/(upper+lower) compartment): 5 μM in upper chamber, 2 h of incubation
Protocol: We used the well-validated confluent HBMEC two chamber BBB model[32] to investigate endothelium transport with metabolite quantification by Orbitrap LC-MS techniques. (Poly)phenol metabolites were added in the upper chamber and their putative transport through the BBB endothelium assessed after 2 h of incubation (Fig. 1a).
Human brain microvascular endothelial cell (HBMEC) line was used as a simplified and validated in vitro model of the BBB[32], [44], [45], [62]. This cell line was derived from primary cultures of HBMEC transfected with SV40 large T antigen. HBMEC line was cultured in RPMI 1640 medium (Sigma-Aldrich) supplemented with 10% fetal bovine serum (FBS - Biochrom AG), 10% NuSerum IV (BD Biosciences), 1% non-essential amino acids (NEAA - Biochrom AG), 1% minimal essential medium (MEM) vitamins (Biochrom AG), 1 mM sodium pyruvate (Biochrom AG), 2mM L-glutamine (Biochrom AG), and 1% antibiotic-antimycotic solution (Sigma-Aldrich). For immunostaining and cytoprotection studies, cells were seeded at a density of 8 × 10^4 cell/mL in 24-well and 96-well plates, respectively, and treated after 48 h in culture. For integrity and transport studies, cells were seeded on polyester transwell inserts (0.4 μm, Corning Costar Corp., USA) at a density of 8 × 10^4 cell/insert and treated after 8 days in culture. Inserts and plates were coated with rat-tail collagen-I (BD Biosciences, Erembodegem, Belgium) before seeding. All experiments were performed after monolayer formation.
HBMEC were plated in semi-permeable membranes (inserts) placed in cell culture wells. This two-chamber system, where the upper and lower chambers mimic the blood and brain compartments, respectively, and the confluent HBMEC monolayer represents the BBB. Transport assays were conducted in HBSS (Hank’s Balanced Salt Solution) with calcium and magnesium (Gibco), supplemented with 0.1% FBS. Confluent monolayers of HBMEC were incubated with 5 μM of each compound for 2 h, time described for compounds to interact and/or being transported across cells, [69]. […]. Monolayer integrity was ensured in all experiments as described. In the end, cell medium from upper and lower compartments were collected and frozen at −80 °C until analysis. Transport analysis were performed after sample deproteinization by LC-Orbitrap MS as described below.
To 1 mL of upper or lower compartment cell medium it was added: 139 µL of 50% formic acid, ascorbic acid (final concentration of 1 mM) and taxifolin as internal standard (final concentration of 9 µM). To precipitate proteins, 2.5 mL of ACN was added dropwise and samples were vortexed before centrifugation at 3200 g for 15 min. The supernatant was removed and dried under centrifugal evaporation (CentriVap Vaccum Concentrator, Labconco). Samples were dissolved in 5% ACN in 0.1% formic acid and immediately analyzed by LC-Orbitrap MS.
Samples were separated on an HPLC Accela 600 HPLC system (Thermo Scientific, Bremen, Germany) using a C18 Synergi Hydro RP18 column (Phenomenex, Macclesfield, UK) 4 μm particle size and dimensions 2 mm ID × 150 mm. […] Analysis was done on an LTQ OrbitrapTM XL hybrid mass spectrometer (Thermo Scientific, Bremen, Germany).
MS analysis was performed using data-dependent Nth order double play analysis comprising full scan mass range 80–2000 amu, 30 000 resolution, data-type centroid and data dependent MS/MS (60 s of exclusion duration) on the top three most intense ions detected above threshold automatically in the independent scan event. ESI settings were as follows: source voltage, 3.4 kV; capillary temperature was 275 °C with a sheath gas at 40 psi and auxiliary gas at 5 psi. MS data handling software (Xcalibur QualBrowser software, Thermo Electron Corp.) was used to search for predicted metabolites by their appropriate m/z value. All peaks were checked for m/z value and fragmentation products. […]

[2] = design: method as in PMID 25571923; settings: human plasma samples; cited from earlier work
HBMEC = HBMEC metabolization: search for novel cellular metabolites by LC-Orbitrap MS; type: in vitro ADME, human; settings: after addition of Pyr-sulf in upper compartment; compared with acetylcysteine-pyrogallol
Protocol: Search for novel compounds resulting from HBMEC metabolization was performed in the same samples using Xcalibur QualBrowser software using an in-house database of putative bioavailable (poly)phenol metabolites[30]. Putative ID of predicted metabolites was determined by exact mass, according to their appropriate m/z value.

β-III tubulin = experiment: Western blot of neuronal marker in 3D aggregates; type: cell-based, human; settings: pre-incubation with 5µM Pyr-sulf or 200nM Idebenone, normalized to GAPDH
Protocol: (§1) NT2 aggregates and N9 protein samples western blot analysis was performed accordingly to[41]. Aggregates were lysed with TX-100 lysis buffer (50 mM Tris, 5 mM EDTA, 150 mM NaCl, 1% Triton X-100, pH 7.4) and N9 protein extraction was performed with RIPA buffer. Primary antibodies were incubated overnight at RT, followed by secondary antibodies (horseradish peroxidase-conjugated, ECL anti-mouse IgG, anti-rat IgG or anti-rabbit IgG; Pierce, Millipore and GE Healthcare), incubated for 2 h at room temperature. Anti-GAPDH antibody (Thermo Scientific) was used as loading control. Primary antibodies used for protein detection were: anti-βIII-Tubulin (Millipore), anti-GFAP (DAKO), and MitoProfile Total OXPHOS WB primary antibody cocktail (Abcam), anti-phospho-NF-κB p65 (ser536) antibody (Cell Signalling), anti-NF-κB p65 (C-20) (Santa Cruz Biotechnology), and anti-IκB-α (C-21) antibody (Santa Cruz Biotechnology). Membranes were developed using Amersham ECL Prime Western Blotting Detection Reagent (GE Healthcare) and visualized using a ChemiDocTM XRS + System (BioRad).

HBMEC line [3] = experiment: Cytoprotection in HBMEC submitted to oxidative stress (H2O2); type: cell-based, human; settings: pre-incubation 5 µM 24 h, then 300 µM H2O2 24 h
Protocol: HBMEC were incubated in the presence of H2O2 (Sigma-Aldrich). Briefly, 24 h after seeding, cells growth medium was removed and cells were pre-incubated for 24 h with 5 µM of each compound. After pre-incubation, media was replaced by new media containing 300 µM H2O2, for 24 h[71], [72]. In the end, medium was removed and cell viability was assessed using the CellTiter-Blue® Cell Viability Assay (Promega), according to the manufacturer’s instructions.

[4] = test system: 3D aggregates containing neurons and astrocytes (NT2); experiment: Neuroprotection in 3D co-cultures of neurons and astrocytes (t-BHP injury); type: cell-based, human; settings: pre-incubation 5 µM 24 h, then 300 µM t-BHP, 48 h
Protocol: NTera-2/cl.D1 (NT2) cells, obtained from American Type Cell Culture Collection (ATCC), were differentiated in stirred suspension culture systems, as 3D aggregates, as previously described. A single cell suspension of undifferentiated NT2 cells was seeded in DMEM (Dulbeco Minimum Essential Media), 10% FBS, 1% P/S (all from Invitrogen), in a 125 mL spinner vessel equipped with ball impeller (Wheaton). After three days of aggregation, differentiation was induced by addition of 10 µM retinoic acid (Sigma-Aldrich), for three weeks, with a 50% medium exchange performed every 2–3 days. Following this period (from day 24 onwards), the medium was composed by DMEM, 5% FBS, 1% P/S. Stable 3D co-cultures of neurons and astrocytes were maintained up to day 50 of culture and applied in neuroprotection assays (from day 38 to day 50).
Cell viability was accessed before exposure to test compounds, before t-BHP lesion induction and 48 h after lesion induction by PrestoBlue® Cell Viability Reagent (Thermo Fisher Scientific), accordingly to manufacturer’s instructions. Idebenone (provided by Grupo Tecnimede) was used as positive control. Final cell viability was calculated as a percentage of cell viability before lesion induction.

[5] = test system: primary mouse cerebellar granule cells; experiment: Neuroprotection in cerebellar granule cells exposed to glutamate excitotoxicity; type: cell-based; settings: pre-incubation 5 µM 24 h, then 100 µM glutamate 24 h
Protocol: Primary cultures of cerebellar granule cells were prepared according to the already described method. Cells were isolated from cerebella of 7d-old BALB-C mice and 0.5 × 10^6 cell/mL were cultured in Neurobasal Medium (Gibco) supplemented with 2% B-27 without antioxidants (Gibco) and 2% KCl (20 mM, Sigma-Aldrich), containing 0.25% L-glutamine (200 mM, Sigma-Aldrich) and 0.48% penicillin-streptomycin (P/S, 5000 U mL^−1, Gibco). Experiments were performed on 24-well plates with coverslips coated with 50 µg/mL poly-D-lysine (Sigma-Aldrich). 20 µM of cytosine arabinoside (Sigma-Aldrich) was added 48 h after inoculation to prevent glia cell proliferation. All the experiments were performed between days 7–11 in culture.
Physiological concentrations (5 µM) of the two most abundant metabolites were added to the cells at 7 d in culture. Cells were then incubated for 24 h and morphology was evaluated. At day 8 in culture, 100 µM of glutamate (Sigma-Aldrich) was added to the respective wells. Cells were incubated for another 24 h, morphology was evaluated and viability determined by fluorescence microscopy through Propidium Iodide (PI) and Hoechst 33342 staining, as previously described.

P-gp = biological target: T1, P-gp (Homo sapiens, UniProt P08183); experiment: P-gp functional assay, Rhodamine 123 accumulation in HBMEC; type: cell-based; settings: 5 μM
T1 construct: endogenous in cells; host or cells: HBMEC line (human brain microvascular endothelial cells immortalised with SV40 large T antigen)
T1 sequence (P08183 whole entry): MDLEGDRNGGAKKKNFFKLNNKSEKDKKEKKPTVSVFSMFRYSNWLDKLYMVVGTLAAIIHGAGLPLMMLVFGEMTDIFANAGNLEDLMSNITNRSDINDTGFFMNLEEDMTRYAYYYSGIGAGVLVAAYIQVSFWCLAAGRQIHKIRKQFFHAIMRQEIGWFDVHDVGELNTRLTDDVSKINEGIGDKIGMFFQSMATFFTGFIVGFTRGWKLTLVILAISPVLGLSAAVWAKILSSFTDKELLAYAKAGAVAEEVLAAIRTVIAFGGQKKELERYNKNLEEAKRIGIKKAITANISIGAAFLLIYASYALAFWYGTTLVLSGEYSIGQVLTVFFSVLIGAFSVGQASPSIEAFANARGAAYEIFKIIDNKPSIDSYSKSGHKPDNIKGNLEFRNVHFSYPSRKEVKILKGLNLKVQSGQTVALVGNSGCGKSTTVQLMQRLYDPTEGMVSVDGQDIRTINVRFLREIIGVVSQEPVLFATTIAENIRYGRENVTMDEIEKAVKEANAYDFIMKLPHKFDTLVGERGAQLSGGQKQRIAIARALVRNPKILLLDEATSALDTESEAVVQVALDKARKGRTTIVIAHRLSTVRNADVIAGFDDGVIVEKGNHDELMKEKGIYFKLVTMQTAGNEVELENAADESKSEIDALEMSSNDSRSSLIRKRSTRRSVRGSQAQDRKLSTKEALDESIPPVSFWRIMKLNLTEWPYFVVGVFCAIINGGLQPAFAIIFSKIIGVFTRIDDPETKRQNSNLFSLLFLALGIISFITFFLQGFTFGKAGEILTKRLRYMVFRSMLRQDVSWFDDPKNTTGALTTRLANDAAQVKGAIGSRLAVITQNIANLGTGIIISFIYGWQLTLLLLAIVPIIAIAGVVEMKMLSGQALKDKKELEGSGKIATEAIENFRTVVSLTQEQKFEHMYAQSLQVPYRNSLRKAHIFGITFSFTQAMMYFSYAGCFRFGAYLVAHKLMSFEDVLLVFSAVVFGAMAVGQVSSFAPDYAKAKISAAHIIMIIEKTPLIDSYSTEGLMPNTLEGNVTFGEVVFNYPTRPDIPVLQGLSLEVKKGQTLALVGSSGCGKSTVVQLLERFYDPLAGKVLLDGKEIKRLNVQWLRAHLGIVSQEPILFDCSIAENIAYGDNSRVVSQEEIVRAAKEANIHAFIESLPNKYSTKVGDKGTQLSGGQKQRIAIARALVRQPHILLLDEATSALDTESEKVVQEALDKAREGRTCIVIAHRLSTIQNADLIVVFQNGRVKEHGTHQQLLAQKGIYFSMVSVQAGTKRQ
Protocol: Activity of each efflux transporter was determined by measuring cellular accumulation of respective substrate[65], [66], and results were expressed as fold-change compared to the respective control. […] The solution was quickly removed, HBMEC were washed three times with PBS and solubilized in 0.1 M NaOH. Substrate content was determined using a FLUOstar Omega fluorescent plate reader (BMG Labtechnologies, Ortenberg, Germany; for P-gp, excitation at 505 nm, emission at 534 nm; for MRP1, excitation at 495 nm, emission at 516 nm; for BCRP excitation at 503 nm, emission at 512 nm). […] Protein content was evaluated by the Bradford method[67] using Bio-Rad’s Protein Assay reagent (Bio-Rad).

NF-κB p65 = NF-κB p65 phosphorylation (ser536) ratio in N9 microglia (western blot); type: cell-based, murine; settings: N9 cells; pre-treatment before LPS; 15 to 60 min
Protocol: N9 microglial cells were plated into 6-well plates (5 × 10^5 cells mL^−1) and then pre-incubated with 5 µM of each (poly)phenol metabolite. After 6 h, medium was discarded and cells were washed once with phosphate buffer saline (PBS) prior to addition of fresh medium with 300 ng/mL lipopolysaccharide from Escherichia coli 055:B5 (LPS, Sigma–Aldrich). Pro-inflammatory mediators release to medium were quantified as described below.
as §1, with “Membranes were developed using Amersham ECL Prime Western Blotting Detection Reagent (GE Healthcare) and visualized using a ChemiDocTM XRS + System (BioRad).” left out

Row | Molecule | Endothelial transport (lower/(upper+lower) compartment) (HBMEC line [1]) | Cmax [2] [nM] | also measured
1 | 1-O-methylpyrogallol-O-sulfate [1-MePyr-sulf] | less effectively transported | 2880 ± 1800 | –
2 | Cc1ccc(OS(=O)(=O)O)c(O)c1 [4-MeCat-sulf, 4-Methylcatechol O-sulfate] | more effectively transported than catechol-O-sulfate (Cat-sulf); also recorded: higher endothelial transport percentage | 640 ± 500 | –
3 | COc1cc(C(=O)O)ccc1OS(=O)(=O)O [VA-sulf, Vanillic acid 4-O-sulfate] | – | 1340 ± 1300 | –
4 | O=S(=O)(O)Oc1c(O)cccc1O [Pyr-2-sulf, Pyrogallol-2-O-sulfate] | detected only Pyr-2-sulf in the basolateral compartment | – | –
5 | O=S(=O)(O)Oc1cccc(O)c1O [Pyr-1-sulf, Pyrogallol-1-O-sulfate] | – | – | Endothelial transport after 24 h (HBMEC line [1]; Pyr-sulf mixture 5 μM, 24 h incubation): no transport
6 | COc1c(O)cccc1OS(=O)(=O)O [2-MePyr-sulf, 2-O-methylpyrogallol-1-O-sulfate] | transported as effectively as Pyr-sulf | 1970 ± 1000 | –
7 | COc1c(O)cc(C(=O)O)cc1OS(=O)(=O)O [4-MeGA-sulf, 4-O-methylgallic acid-3-O-sulfate] | increased BBB permeation compared with 4-methylgallic acid (4-MeGA) | 2030 ± 1100 | –
8 | N[C@@H](CCC(=O)N[C@@H](CSc1ccc(O)c(O)c1O)C(=O)NCC(=O)O)C(=O)O [Glutathionyl-pyrogallol] | – | – | Relative abundance (peak areas) of novel metabolite (HBMEC): detected in higher amounts
9 | COC1=C(OC)C(=O)C(CCCCCCCCCCO)=C(C)C1=O [idebenone] | – | – | β-III tubulin protein levels after t-BHP lesion (β-III tubulin): increased β-III tubulin protein levels
10 | O=S(=O)(O)Oc1ccccc1O [Cat-sulf, Catechol-O-sulfate] | – | 12200 ± 5900 | Endothelial transport after treatment with BCRP specific inhibitor Ko 143 (HBMEC line [1]; 5 μM, 1 μM Ko 143, p < 0.05 relatively to No inhibitor): significant increase; Endothelial transport along time (HBMEC line [1]; 5 μM, 2, 6 and 24 h): significant increase in transport percentage; Cell viability of HBMEC after H2O2 injury (HBMEC line [3]): improved cell viability; Cell viability of 3D aggregates after t-BHP-induced injury [4]: significant neuroprotection; Cell viability of cerebellar granule cells under glutamate-induced excitotoxicity [5]: improved cell viability; P-gp activity (Rhodamine 123 accumulation) in the presence of metabolite (P-gp): no statistically- significant alterations; Kinetics of NF-κB phosphorylated-p65/total p65 ratio (NF-κB p65): unchanged
11 | COc1c(O)cc(C(=O)O)cc1O [4-MeGA, 4-O-methylgallic acid] | – | 300 ± 100 | –
